In patent publication US20200375949A1, “BISPHENOL COMPOUNDS” (THE TRUSTEES OF THE UNIVERSITY OF PENNSYLVANIA, priority 2017, published 2020):
≈ marks a conversion by molar mass, not a printed value. Where “and” joins values, the source holds several entries; their conditions need not be identical. Equal entries are not always repeated. Where two headings read alike, the source gives them in different places.

Legend:
membrane = assay: SYTOX green cell permeabilization assay; format: cell-based; conditions: SYTOX green nucleic acid stain, FIGS. 1A-1F
Protocol: This example was performed to measure cell viability (i.e., cell permeabilization) by using a molecule that fluoresces when bound to DNA. The assay performed was a SYTOX™ assay green nucleic acid stain using compounds 1H and 2E. Specifically, when the membrane was perturbed, the molecule entered the cell, bound to DNA and fluoresced. The positive and negative controls were a quaternary ammonium compound (QAC; 12,3,2,3,12) and vancomycin, respectively. See the results shown in, e.g., FIGS. 1A-1F.

[1] = test system: red blood cells (mechanically defibrinated sheep blood); assay: Hemolysis assay (cell lysis); format: cell-based; set-up: red blood cell lysis: unit not given here; conditions: for red blood cell lysis: 1 hour, 37° C.; for concentration at which the membrane is perturbed: stated under the cell lysis example
Protocol: The effects of the compounds described herein to lyse cells was evaluated in this example. Hemolysis assays were performed on mechanically defibrinated sheep blood (Hemostat Labs: DSB030). 1.5 mL of blood was placed into a microcentrifuge tube and centrifuged at 10,000 rpm for ten minutes. The supernatant was removed and then the cells were resuspended with 1 mL of phosphate-buffered saline (PBS). The suspension was centrifuged as previously, the supernatant was removed, and cells were resuspended two more times. The final cell suspension was diluted twentyfold with PBS. The twentyfold suspension dilution was then aliquoted into microcentrifuge tubes containing compound serially diluted in PBS. TritonX (1% by volume) served as a positive control (100% lysis marker) and sterile PBS served as a negative control (0% lysis marker). Samples were then placed in an incubator at 37° C. and shaken at 200 rpm. After 1 hour, the samples were centrifuged at 10,000 rpm for ten minutes. The absorbance of the supernatant was measured with a UV spectrometer at a 540 nm wavelength. See, e.g., Peng, Chem. Comm. 2011, 47, 4896-4898.

[2] = test system: Streptococcus mutans wild-type strain UA159; assay: MIC assay, S. mutans; format: cell-based
Description: (§1) Streptococcus mutans wild-type strain UA159 was provided by Dr. Bettina Buttaro from Temple University Medical School, Philadelphia, Pa. Streptococcus gordonii strain DL1 and Streptococcus sanguinis strain 10904 were provided by Dr. Robert G. Quivey from University of Rochester Medical School. Streptococcus gordonii strain DL1 may be obtained from the American Type Culture Collection under accession #49818. Streptococcus sanguinis strain 10904 may be obtained from the National Collection of Type Cultures under accession #10904. Bacteria were routinely maintained on in Bacto™ Todd-Hewitt (TH) agar plates and liquid cultures were grown in Bacto™ Todd-Hewitt broth (THB). For growth of biofilms, THB was supplemented with 0.1% sucrose. Incubation was stagnant at 37° C. Bacterial strains Methicillin-Resistant Staphylococcus aureus HPV107, Staphylococcus epidermidis Fussel [NCTC 11047, R. Hugh 2466], Streptococcus sobrinus SL1 [CCM 6070, CNCTC 9/89], Enterococcus faecalis NCTC 775 [DSM 20478, JCM 8726, NCDO 581, Tissier], Pseudomonas aeruginosa [CCEB 481, MDB strain BU 277, NCIB 8295, NCPPB 1965, NCTC 10332, NRRL B-771, R. Hugh 815], Serratia marcescens BS 303 [CDC 813-60, NCIB 9155, NCTC 10211], and Acinetobacter baumannii 2208 [81, DSM 6974] were purchased from the American Type Culture Collection.
(§2) Stock solutions of compounds (10 mM) were serial diluted (200 μL, 100 μL, 50 μL, 10 μL, and 2 μL) in THB media in flat-bottom 96-well microtiter plates (total volume 100 μL). Bacterial cultures were grown in brain heart infusion or nutrient broth media to mid-exponential phase, back diluted to an OD of 0.1 and then inoculated into the 96-well plate to reach a final volume of 200 μL. Plates were inoculated at 37° C. in 5% CO2 for 20-24 hours upon which time wells were evaluated visually for bacterial growth and/or the wells' OD630 was evaluated via spectrophotometer. […] DMSO controls corresponding to each test concentration were performed. Biological triplicates were performed to confirm results.

[3] = test system: Streptococcus sanguinis strain 10904; assay: MIC assay, S. sanguinis; format: cell-based; conditions: 5% CO2, 37° C., 20-24 hours
Description: as §1, §2

[4] = test system: Streptococcus gordonii strain DL1; assay: MIC assay, S. gordonii; format: cell-based; conditions: 5% CO2, 37° C., 20-24 hours
Description: as §1, §2

[5] = test system: Streptococcus mutans wild-type strain UA159; assay: MIC assay, S. mutans; format: cell-based; conditions: read-out: MIC S. mutans, aerobic conditions
[6] = test system: Streptococcus mutans wild-type strain UA159; conditions: original assays in aerobic environment; cited from earlier work
S. mutans = S. mutans MBC assay; format: cell-based, Streptococcus mutans; conditions: for MBC: Streptococcus mutans, 3-log reduction in CFU count (99.9% bacterial death); for bacteriostatic or bactericidal properties (regrow analysis, MIC vs MBC): S. mutans
Protocol: MIC assay was performed (above) and each well diluted (log-dilution) into a new 96-well microtiter plate. Five μL from each dilution was then plated on THB agar plates and incubated for 24 hours. Colony counts were performed to determine MBC which is defined as the concentration which there is a 3-log reduction in CFU count which corresponds to 99.9% bacterial death.

S. mutans biofilm = S. mutans biofilm model / crystal violet; format: cell-based, Streptococcus mutans; conditions: at concentrations of 250 μM or lower
Protocol: Stock solutions of the compounds (10 mM) were serial diluted in THB media supplemented with 0.1% sucrose (w/v) in flat-bottom 96-well microtiter plates (total volume 100 μL). Bacterial cultures were grown to mid-exponential phase, back diluted to an OD of 0.1 and then inoculated into the 96-well plate to reach a final volume of 200 μL. Plates were incubated at 37° C. in 5% CO2 for 24 hours (early stage biofilm) upon which time wells were evaluated visually for bacterial growth. DMSO controls corresponding to each test concentration were performed. Biological triplicates were performed to confirm results. Biofilm assay was performed (above) and wells are washed with 200 μL of DI H2O and dried for 24 hours at 37° C. Dried plates were incubated for 10 minutes at room temperature with 50 μL of 1% w/v crystal violet (25% ethanol in H2O). Excess crystal violet was removed via aspiration. 200 μL of DI H2O was added to each well and aspirated (repeat until all excess crystal violet is removed). Plates were then inverted and dried at 37° C. for 3-5 hours. Crystal violet stain biofilm mass was dissolved with 200 μL of 95% ethanol, 100 μL of which was then transferred to a fresh flat-bottom 96-well plate for absorbance measurements at 595 nm. DMSO controls corresponding to each test concentration were performed. Biological triplicate was performed to confirm results. […]

[7] = Concentration 500 μM, TritonX 100% lysis, PBS 0% lysis
[8] = planktonic, 5% CO2, 37° C., 20-24 hours

SMILES	MIC [2, 8] [µM]	MIC [3] [µM]	MIC [4] [µM]	concentration at which the membrane is perturbed (membrane) [µM]	red blood cell lysis ([1]; Concentration 0.25 μM)	red blood cell lysis ([1]; Concentration 0.5 μM)	red blood cell lysis ([1]; Concentration 1 μM)	red blood cell lysis ([1]; Concentration 2 μM)	red blood cell lysis ([1]; Concentration 4 μM)	red blood cell lysis ([1]; Concentration 8 μM)	red blood cell lysis ([1]; Concentration 16 μM)	red blood cell lysis ([1]; Concentration 32 μM)	red blood cell lysis ([1]; Concentration 63 μM)	red blood cell lysis ([1]; Concentration 125 μM)	red blood cell lysis ([1]; Concentration 250 μM)	red blood cell lysis [1, 7]	concentration at which the membrane is perturbed [1] [µM]	MBC (S. mutans) [µM]	bacteriostatic or bactericidal properties (regrow analysis, MIC vs MBC) (S. mutans)	also measured
C=CCc1ccc(O)c(-c2ccc(O)c(CC=C)c2)c1 [Compound A1, honokiol, reference compound]	250	125 (≈ 33.3 µg/mL)	125 (≈ 33.3 µg/mL)																	MIC [5]: 125 µM and 33.3 µg/mL; MIC S. mutans, literature value [6]: 10 µg/mL (≈ 37.5 µM); bactericidal activity (S. mutans; at concentrations of 250 μM or lower): not bactericidal; inhibition of biofilm growth (S. mutans biofilm): unable to inhibit biofilm growth; MIC ([2]; 5% CO2-supplemented environment): 66.6 µg/mL
Cc1cc(-c2c(O)ccc3ccccc23)cc(C(C)(C)C)c1O [Compound B9, 1-(3-(tert-Butyl)-4-hydroxy-5-methylphenyl)naphthalen-2-ol]	32	32 (≈ 9.8 µg/mL)	32 (≈ 9.8 µg/mL)															32 (≈ 9.8 µg/mL)		
CCCc1cc(-c2c(O)ccc3cc(OC)ccc23)cc(C(C)(C)C)c1O [Compound B11, 1-(3-(tert-Butyl)-4-hydroxy-5-propylphenyl)-6-methoxynaphthalen-2-ol]	16	8 (≈ 2.92 µg/mL)	16 (≈ 5.83 µg/mL)															63 (≈ 23 µg/mL)	bactericidal	

Further compounds by falling MIC [2, 8], results first:

MIC [2, 8] [µM]	MIC [3] [µM]	MIC [4] [µM]	SMILES	concentration at which the membrane is perturbed (membrane) [µM]	red blood cell lysis ([1]; Concentration 0.25 μM)	red blood cell lysis ([1]; Concentration 0.5 μM)	red blood cell lysis ([1]; Concentration 1 μM)	red blood cell lysis ([1]; Concentration 2 μM)	red blood cell lysis ([1]; Concentration 4 μM)	red blood cell lysis ([1]; Concentration 8 μM)	red blood cell lysis ([1]; Concentration 16 μM)	red blood cell lysis ([1]; Concentration 32 μM)	red blood cell lysis ([1]; Concentration 63 μM)	red blood cell lysis ([1]; Concentration 125 μM)	red blood cell lysis ([1]; Concentration 250 μM)	red blood cell lysis [1, 7]	concentration at which the membrane is perturbed [1] [µM]	MBC (S. mutans) [µM]	bacteriostatic or bactericidal properties (regrow analysis, MIC vs MBC) (S. mutans)	also measured
32	8 (≈ 3.16 µg/mL)	8 (≈ 3.16 µg/mL)	COC(=O)c1cc2c(-c3cc(C(C)C)c(O)c(C(C)C)c3)c(O)ccc2cc1O [Compound B10, Methyl 3,7-dihydroxy-8-(4-hydroxy-3,5-diisopropylphenyl)-2-naphthoate]															32 (≈ 12.6 µg/mL)		
2			CC(C)(C)c1ccc(Cc2ccc(C(C)(C)C)c(O)c2)cc1O [Compound 3N, 5,5′-methylenebis(2-(tert-butyl)phenol)]	32	0.13	−0.02	−0.02	−0.02	0.11	−0.03	−0.02	0.02	0.38	0.43	0.34	0.74	32			
2	2.5 (≈ 0.816 µg/mL)	1.25 (≈ 0.408 µg/mL)	CC(C)(C)c1ccc(CCc2ccc(C(C)(C)C)c(O)c2)cc1O [Compound C2, 5,5′-(Ethane-1,2-diyl)bis(2-(tert-butyl)phenol)]	32	0.02	0.01	−0.02	−0.02	−0.01	−0.03	−0.03	0.07	0.29	0.43	0.70	0.48	32	4 (≈ 1.31 µg/mL)	bactericidal	lysis of blood cells [1]: lyses blood cells at high concentrations
